Assay results: patent US20240076609A1, “COMPOSITIONS AND METHODS FOR CULTURING AND EXPANDING CELLS” (LIFE TECHNOLOGIES CORPORATION, priority 2017, published 2024)
Several values for one entry are separate records, joined by “and”; a condition that tells them apart may be missing. Equal values may be shown once. Entries after “also recorded” stand apart in the source; their conditions may differ.

Assays:
Primary human T cells [1] = assay: Cytokine production upon re-stimulation (35-Plex Luminex) with 2-DG; format: cell-based; details: expanded 12 days, multiplexed cytokine assay
Excerpt: Cytokine Profiles: Primary human T cells from normal donors were negatively isolated from PBMCs with the DYNABEADS® UNTOUCHED™ Human T Cells kit (Thermo Fisher Scientific, Cat. No. 11344D). T cells (seeding density 1×10^6 vc/mL) were activated with DYNABEADS® Human T-Expander CD3/CD28 (Thermo Fisher Scientific, Cat. No. 11141D) at a ratio of 3 beads per T cell and cultured in serum-free and animal origin free medium or control medium X-VIVO™ 15 (Lonza, Cat. No. BE02-054Q) supplemented with 5% human AB serum. T cells were counted on days 5, 7, 10, and 12 on a Vi-CELL XR analyzer (Beckman Coulter, Indianapolis IN) and fed to a density of 5×10^5 vc/mL on days 3, 5, and 7 and to a density of 1×10^6 vc/mL on day 10. DYNABEADS® were magnetically removed from cultures on day 10 and cells were spun to remove conditioned medium and rested overnight in fresh medium. […]
T cells were expanded for 12 days and re-stimulated with DYNABEADS® Human T-Expander CD3/CD28. Cytokine production upon re-stimulation was assessed with Invitrogen Cytokine Human Magnetic 35-Plex Panel for LUMINEX™. […]
T cells were expanded for 12 days and re-stimulated with DYNABEADS® Human T-Expander CD3/CD28. Cytokine production upon re-stimulation was assessed with Invitrogen Cytokine Human Magnetic 35-Plex Panel for LUMINEX™.

Primary human T cells [2] = assay: CD8+/CD4+ phenotype with 2-DG at different time points and every feed; format: cell-based; details: for Fold Increase compared to Baseline: Day 10 vs Day 0 ratio
Description: FIG. 45 represents the data shown in Table 39 which highlights the fold increase in CD8+ to CD4+ ratio of T cells cultured with 2-DG at different time points and every time the cells were fed.
Phenotype: Primary human T cells were expanded for 10 days with and without 2-DG and 5% human AB serum. DYNABEADS® were removed from 2×10^6 cells by magnetic separation. Surface staining was performed with antibodies against CD3 (Invitrogen, Cat. No. CD0329), CD4 (Molecular Probes, Cat. No. A15858), CD8 (Invitrogen, Cat. No. MHCD0828). Flow cytometric analysis was performed on a Gallios flow cytometer and Kaluza software (Beckman Coulter, Indianapolis IN).

[3] = system: mixed CD4+ T cells and CD8+ T cells; assay: Expansion of mixed CD4+ and CD8+ T cells at set ratios (5:1, 10:1) with 2-DG; format: cell-based, human; details: for Cultured T Cell Population Doublings at 5:1 CD4+:CD8+ Cells / Cultured T Cell Population Doublings at 10:1 CD4+:CD8+ Cells: 0.25 mM 2-DG
Description: T cell activation and expansion: T cells (seeding density 1×10^6 vc/mL) were activated with DYNABEADS® Human T-Expander CD3/CD28 (Thermo Fisher Scientific, Cat. No. 11141D) at a ratio of 3 beads per T cell and cultured in serum-free medium, animal origin free medium. T cells were counted on days 5, 7, 10, and 12 on a Vi-CELL XR analyzer (Beckman Coulter, Indianapolis IN) and fed with or without 2-DG (0.25 mM, 0.5 mM, 1 mM, 2 mM, and 4 mM) and 5% human AB serum to a density of 5×10^5 vc/mL on days 3, 5, and 7 and 1×10^6 vc/mL on day 10. For some studies, CD8+ and CD4+ T cells were isolated from PBMCs by negative selection using Untouched Human CD8+ and CD4+ T Cells Kits. Naïve and non-naïve T cells were isolated from enriched T cells by positive selection using CD45RA nanobeads (Miltenyi). CD4+ and CD8+ T cells were mixed at two different CD4+:CD8+ ratios (5:1 and 10:1) to determine the effect of 2-DG on CD8+ T cells. All conditions with and without 2-DG expanded to about 6 to 7 population doublings. Results illustrate that the effect of 2-DG treatment in cell growth was similar in both mixtures. (FIGS. 19 and 20). In FIGS. 38 and 39, CD4+ and CD8+ T cells were mixed at two different CD4:CD8 ratios (5:1 and 10:1) to determine the effect of 2-DG on CD8+ T cells. All conditions with and without 2-DG expanded to about 6 to 7 population doublings. Results illustrate that the effect of 2-DG treatment in cell growth was similar in both mixtures.

[4] = 0.25 mM 2-DG at Day 0, Day 10 of culture
[5] = 0.25 mM 2-DG at Day 0, after 10 days of culture
[6] = 0.25 mM 2-DG at Day 3, Day 10 of culture
[7] = 0.25 mM 2-DG at Day 3, after 10 days of culture
[8] = 0.25 mM 2-DG at Day 5, Day 10 of culture
[9] = 0.25 mM 2-DG at Day 5, after 10 days of culture
[10] = 0.25 mM 2-DG at Day 7, Day 10 of culture
[11] = 0.25 mM 2-DG at Day 7, after 10 days of culture
[12] = 0.25 mM 2-DG at Every Feed, Day 10 of culture
[13] = 0.25 mM 2-DG at Every Feed, after 10 days of culture

SMILES: O=CC[C@@H](O)[C@H](O)[C@H](O)CO [2-DG, 2-Deoxy-D-Glucose]
- cytokine production / function of the cells upon re-stimulation (Primary human T cells [1]): no change in cytokine production; also recorded: does not alter the function of the cells
- % CD4+ (Primary human T cells [2]; [4]): 74.78%
- % CD8+ (Primary human T cells [2]; [4]): 22.88%
- % Ratios (CD8+/CD4+) (Primary human T cells [2]; [4]): 0.31
- Fold Increase compared to Baseline (Primary human T cells [2]; 0.25 mM 2-DG at Day 0): 1.38
- % CD4+ (Primary human T cells [2]; [5]): 74.78%
- % CD8+ (Primary human T cells [2]; [5]): 22.88%
- % Ratios (CD8+/CD4+) (Primary human T cells [2]; [5]): 0.31
- % CD4+ (Primary human T cells [2]; [6]): 70.62%
- % CD8+ (Primary human T cells [2]; [6]): 25.76%
- % Ratios (CD8+/CD4+) (Primary human T cells [2]; [6]): 0.36
- Fold Increase compared to Baseline (Primary human T cells [2]; 0.25 mM 2-DG at Day 3): 1.64
- % CD4+ (Primary human T cells [2]; [7]): 70.62%
- % CD8+ (Primary human T cells [2]; [7]): 25.76%
- % Ratios (CD8+/CD4+) (Primary human T cells [2]; [7]): 0.36
- % CD4+ (Primary human T cells [2]; [8]): 76.18%
- % CD8+ (Primary human T cells [2]; [8]): 21.26%
- % Ratios (CD8+/CD4+) (Primary human T cells [2]; [8]): 0.28
- Fold Increase compared to Baseline (Primary human T cells [2]; 0.25 mM 2-DG at Day 5): 1.26
- % CD4+ (Primary human T cells [2]; [9]): 76.18%
- % CD8+ (Primary human T cells [2]; [9]): 21.26%
- % Ratios (CD8+/CD4+) (Primary human T cells [2]; [9]): 0.28
- % CD4+ (Primary human T cells [2]; [10]): 73.28%
- % CD8+ (Primary human T cells [2]; [10]): 23.91%
- % Ratios (CD8+/CD4+) (Primary human T cells [2]; [10]): 0.33
- Fold Increase compared to Baseline (Primary human T cells [2]; 0.25 mM 2-DG at Day 7): 1.47
- % CD4+ (Primary human T cells [2]; [11]): 73.28%
- % CD8+ (Primary human T cells [2]; [11]): 23.91%
- % Ratios (CD8+/CD4+) (Primary human T cells [2]; [11]): 0.33
- % CD4+ (Primary human T cells [2]; [12]): 76.76%
- % CD8+ (Primary human T cells [2]; [12]): 20.35%
- % Ratios (CD8+/CD4+) (Primary human T cells [2]; [12]): 0.27
- Fold Increase compared to Baseline (Primary human T cells [2]; 0.25 mM 2-DG at Every Feed): 1.19
- % CD4+ (Primary human T cells [2]; [13]): 76.76%
- % CD8+ (Primary human T cells [2]; [13]): 20.35%
- % Ratios (CD8+/CD4+) (Primary human T cells [2]; [13]): 0.27
- Fold Increase in CD8+ to CD4+ ratio (Primary human T cells [2]; 0.25 mM 2-DG every time cells were fed): 3 fold
- Fold Increase in CD8+ to CD4+ ratio (Primary human T cells [2]; 0.25 mM 2-DG on day 7 only): 3 fold
- Cultured T Cell Population Doublings at 5:1 CD4+:CD8+ Cells ([3]; day 5): 2.84 and 1.95
- Cultured T Cell Population Doublings at 10:1 CD4+:CD8+ Cells ([3]; day 5): 1.97
- Cultured T Cell Population Doublings at 5:1 CD4+:CD8+ Cells ([3]; day 7): 5.44 and 2.84
- Cultured T Cell Population Doublings at 10:1 CD4+:CD8+ Cells ([3]; day 7): 2.98
- Cultured T Cell Population Doublings at 5:1 CD4+:CD8+ Cells ([3]; day 10): 6.17 and 5.44
- Cultured T Cell Population Doublings at 10:1 CD4+:CD8+ Cells ([3]; day 10): 5.67
- Cultured T Cell Population Doublings at 10:1 CD4+:CD8+ Cells ([3]; day 12): 6.25
- population doublings ([3]; CD4+:CD8+ ratios 5:1 and 10:1): 6 to 7 population doublings
